{"source": "paper PMC4819940", "about": "(Cancer Chemotherapy and Pharmacology, 2016)", "key": {"[1]": {"experiment": "Plasma pharmacokinetics of AZD5363 after a single dose and multiple doses", "type": "in vivo, human", "source_text": "[…] area under the plasma concentration–time curve (AUC), maximum plasma (peak) drug concentration (Cmax), time to reach Cmax (tmax), apparent plasma clearance (CL/F), and oral volume of distribution at steady state (Vss/F)."}, "[2]": {"system": "advanced solid tumors in Japanese patients", "experiment": "Objective tumor response (RECIST version 1.1)", "type": "in vivo, human", "conditions": "for Best objective response: Non-response, Not evaluable / Best objective response: Non-response, RECIST progression / Best objective response: Non-response, Stable disease ≥6 weeks / Best objective response: Complete response / Best objective response: Partial response: patients, count (%); for Best objective response: Complete response / Best objective response: Partial response: response confirmed after 4 weeks; for time to partial response after starting AZD5363: Akt1 (E17K) positive; for duration of partial response at data cutoff: data cutoff July 7, 2014", "source_text": "Objective tumor response assessments were based on Response Evaluation Criteria in Solid Tumors (RECIST) version 1.1.\nTumor samples were screened for mutations using a clinical sequencing platform consisting of an in-house cancer gene panel (National Cancer Center OncoPanel version 2) based on an Agilent Sure Select system and an Illumina MiSeq sequencer. The target regions to be captured were the exons of 90 targetable or actionable genes and the introns of 10 protein kinase genes. Samples with <10 % tumor cell content were excluded from the analysis."}, "[3]": {"conditions": "single dose, Total, n=41, median (range)"}, "[4]": {"conditions": "breast cancer patient, 640 mg bid intermittent 2/5"}, "[5]": {"conditions": "ovarian cancer patient, 480 mg bid intermittent 4/3"}}, "data": [{"smiles": "NC1(C(=O)N[C@@H](CCO)c2ccc(Cl)cc2)CCN(c2ncnc3[nH]ccc23)CC1", "note": "[AZD5363]", "values": [{"measurement": "t half", "setting": "[1]; single dose, 320 mg bid continuous cohort, n=6, median (range)", "result": "9.7 (7.3‒10.6) hours"}, {"measurement": "t half", "setting": "[1]; single dose, 360 mg bid intermittent 4/3 cohort, n=8, median (range)", "result": "9.7 (5.3‒11.1) hours"}, {"measurement": "t half", "setting": "[1]; single dose, 400 mg bid continuous cohort, n=5, median (range)", "result": "9.6 (9.0‒13.0) hours"}, {"measurement": "t half", "setting": "[1]; single dose, 480 mg bid intermittent 4/3 cohort, n=6, median (range)", "result": "9.3 (8.1‒11.6) hours"}, {"measurement": "t half", "setting": "[1]; single dose, 640 mg bid intermittent 2/5 cohort, n=6, median (range)", "result": "10.1 (9.4‒13.7) hours"}, {"measurement": "Tmax", "setting": "[1]; [3]", "result": "1.98 (0.87‒4.02) hours"}, {"measurement": "t half", "setting": "[1]; [3]", "result": "9.9 (5.3‒13.7) hours"}, {"measurement": "duration of distribution phase following Cmax", "setting": "[1]; single oral doses, generally lasting up to", "result": "6 to 8", "unit": "h"}, {"measurement": "Best objective response: Non-response, Not evaluable", "setting": "[2]; 80 mg bid continuous", "result": "0 (0.0)"}, {"measurement": "Best objective response: Non-response, RECIST progression", "setting": "[2]; 80 mg bid continuous", "result": "1 (33.3)"}, {"measurement": "Best objective response: Non-response, Stable disease ≥6 weeks", "setting": "[2]; 80 mg bid continuous", "result": "2 (66.7)"}, {"measurement": "Best objective response: Complete response", "setting": "[2]; 80 mg bid continuous", "result": "0 (0.0)"}, {"measurement": "Best objective response: Partial response", "setting": "[2]; 80 mg bid continuous", "result": "0 (0.0)"}, {"measurement": "Best objective response: Non-response, Not evaluable", "setting": "[2]; 240 mg bid continuous", "result": "1 (14.3)"}, {"measurement": "Best objective response: Non-response, RECIST progression", "setting": "[2]; 240 mg bid continuous", "result": "5 (71.4)"}, {"measurement": "Best objective response: Non-response, Stable disease ≥6 weeks", "setting": "[2]; 240 mg bid continuous", "result": "1 (14.3)"}, {"measurement": "Best objective response: Complete response", "setting": "[2]; 240 mg bid continuous", "result": "0 (0.0)"}, {"measurement": "Best objective response: Partial response", "setting": "[2]; 240 mg bid continuous", "result": "0 (0.0)"}, {"measurement": "Best objective response: Non-response, Not evaluable", "setting": "[2]; 320 mg bid continuous", "result": "2 (66.7)"}, {"measurement": "Best objective response: Non-response, RECIST progression", "setting": "[2]; 320 mg bid continuous", "result": "1 (33.3)"}, {"measurement": "Best objective response: Non-response, Stable disease ≥6 weeks", "setting": "[2]; 320 mg bid continuous", "result": "0 (0.0)"}, {"measurement": "Best objective response: Complete response", "setting": "[2]; 320 mg bid continuous", "result": "0 (0.0)"}, {"measurement": "Best objective response: Partial response", "setting": "[2]; 320 mg bid continuous", "result": "0 (0.0)"}, {"measurement": "Best objective response: Non-response, Not evaluable", "setting": "[2]; 360 mg bid intermittent 4/3", "result": "2 (25.0)"}, {"measurement": "Best objective response: Non-response, RECIST progression", "setting": "[2]; 360 mg bid intermittent 4/3", "result": "3 (37.5)"}, {"measurement": "Best objective response: Non-response, Stable disease ≥6 weeks", "setting": "[2]; 360 mg bid intermittent 4/3", "result": "3 (37.5)"}, {"measurement": "Best objective response: Complete response", "setting": "[2]; 360 mg bid intermittent 4/3", "result": "0 (0.0)"}, {"measurement": "Best objective response: Partial response", "setting": "[2]; 360 mg bid intermittent 4/3", "result": "0 (0.0)"}, {"measurement": "Best objective response: Non-response, Not evaluable", "setting": "[2]; 400 mg bid continuous", "result": "1 (25.0)"}, {"measurement": "Best objective response: Non-response, RECIST progression", "setting": "[2]; 400 mg bid continuous", "result": "3 (75.0)"}, {"measurement": "Best objective response: Non-response, Stable disease ≥6 weeks", "setting": "[2]; 400 mg bid continuous", "result": "0 (0.0)"}, {"measurement": "Best objective response: Complete response", "setting": "[2]; 400 mg bid continuous", "result": "0 (0.0)"}, {"measurement": "Best objective response: Partial response", "setting": "[2]; 400 mg bid continuous", "result": "0 (0.0)"}, {"measurement": "Best objective response: Non-response, Not evaluable", "setting": "[2]; 480 mg bid intermittent 4/3", "result": "0 (0.0)"}, {"measurement": "Best objective response: Non-response, RECIST progression", "setting": "[2]; 480 mg bid intermittent 4/3", "result": "1 (16.7)"}, {"measurement": "Best objective response: Non-response, Stable disease ≥6 weeks", "setting": "[2]; 480 mg bid intermittent 4/3", "result": "4 (66.7)"}, {"measurement": "Best objective response: Complete response", "setting": "[2]; 480 mg bid intermittent 4/3", "result": "0 (0.0)"}, {"measurement": "Best objective response: Partial response", "setting": "[2]; 480 mg bid intermittent 4/3", "result": "1 (16.7)"}, {"measurement": "Best objective response: Non-response, Not evaluable", "setting": "[2]; 640 mg bid intermittent 2/5", "result": "1 (16.7)"}, {"measurement": "Best objective response: Non-response, RECIST progression", "setting": "[2]; 640 mg bid intermittent 2/5", "result": "4 (66.7)"}, {"measurement": "Best objective response: Non-response, Stable disease ≥6 weeks", "setting": "[2]; 640 mg bid intermittent 2/5", "result": "0 (0.0)"}, {"measurement": "Best objective response: Complete response", "setting": "[2]; 640 mg bid intermittent 2/5", "result": "0 (0.0)"}, {"measurement": "Best objective response: Partial response", "setting": "[2]; 640 mg bid intermittent 2/5", "result": "1 (16.7)"}, {"measurement": "Best objective response: Non-response, Not evaluable", "setting": "[2]; Total", "result": "7 (18.9)"}, {"measurement": "Best objective response: Non-response, RECIST progression", "setting": "[2]; Total", "result": "18 (48.6)"}, {"measurement": "Best objective response: Non-response, Stable disease ≥6 weeks", "setting": "[2]; Total", "result": "10 (27.0)"}, {"measurement": "Best objective response: Complete response", "setting": "[2]; Total", "result": "0 (0.0)"}, {"measurement": "Best objective response: Partial response", "setting": "[2]; Total", "result": "2 (5.4)"}, {"measurement": "patients with confirmed partial response", "setting": "[2]; all cohorts, both Akt1 (E17K) mutation positive", "result": "two"}, {"measurement": "best response, decrease in the SLD of target lesions", "setting": "[2]; [4]", "result": 60.8, "unit": "%"}, {"measurement": "day on which progression was confirmed", "setting": "[2]; [4]", "result": 378, "unit": "days"}, {"measurement": "time to partial response after starting AZD5363", "setting": "[2]; [4]", "result": 44, "unit": "days"}, {"measurement": "patients with stable disease for 12 weeks or more", "setting": "[2]; of the 10 patients with stable disease", "result": "Seven"}, {"measurement": "time partial response was maintained", "setting": "[2]; one patient in the 480 mg bid 4/3 dosing cohort", "result": "> 2", "unit": "years"}, {"measurement": "best response, decrease in the sum of the longest diameter (SLD) of target lesions", "setting": "[2]; [5]", "result": 55.8, "unit": "%"}, {"measurement": "duration of response", "setting": "[2]; ovarian cancer patient, 480 mg bid intermittent 4/3, as of September 2015, according to the investigator", "result": 1177, "unit": "days"}, {"measurement": "time to partial response after starting AZD5363", "setting": "[2]; [5]", "result": 79, "unit": "days"}, {"measurement": "duration of partial response at data cutoff", "setting": "[2]; patient in the 480 mg bid intermittent 4/3 cohort", "result": 675, "unit": "days"}, {"measurement": "duration of partial response at data cutoff", "setting": "[2]; patient in the 640 mg bid intermittent 2/5 cohort", "result": 127, "unit": "days"}, {"measurement": "patients with stable disease", "setting": "[2]; three on continuous dosing and seven on intermittent dosing", "result": "Ten"}, {"measurement": "patients with a complete response", "setting": "[2]; tumor response analysis set", "result": "no patients"}, {"measurement": "patients with disease progression", "setting": "[2]; tumor response analysis set, 37 patients", "result": 48.6, "unit": "%"}, {"measurement": "response of PIK3CA mutation positive patients to AZD5363 treatment", "setting": "[2]; two additional patients identified as PIK3CA mutation positive", "result": "did not respond"}]}]}
